Laboratory results from patent publication US20240150298A1, “ANTIBACTERIAL COMPOUNDS” (Blacksmith Medicines, Inc., priority 2021, published 2024).
pIC50: −log10 of the molar value. Values after ≈ are worked out from the molar mass of the structure shown.

Experiments:
K. pneumoniae LpxC = K. pneumoniae LpxC (Klebsiella pneumoniae subsp. pneumoniae, UniProt A6T4N9); assay: LpxC Binding Assay (Rapid Fire MS assay); type: biochemical
P. aeruginosa LpxC = target: T1, P. aeruginosa LpxC (Pseudomonas aeruginosa, UniProt P47205); assay: LpxC Binding Assay (Rapid Fire MS assay); type: biochemical
T1 sequence (P47205 1-303): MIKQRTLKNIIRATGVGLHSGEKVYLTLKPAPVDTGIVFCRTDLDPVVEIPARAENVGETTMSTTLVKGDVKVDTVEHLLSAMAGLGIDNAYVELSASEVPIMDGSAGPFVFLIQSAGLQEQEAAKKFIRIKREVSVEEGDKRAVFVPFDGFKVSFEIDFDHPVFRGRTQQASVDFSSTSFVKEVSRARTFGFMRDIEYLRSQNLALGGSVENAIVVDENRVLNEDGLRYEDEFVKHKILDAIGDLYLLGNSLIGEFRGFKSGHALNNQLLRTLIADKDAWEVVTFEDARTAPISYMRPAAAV
Experimental: (§1) IC50 values against E. coli and P. aeruginosa LpxC are determined using a Rapid Fire MS assay as previously described J. Med. Chem. 2012, 55, 1662-1670.

E. coli LpxC = E. coli LpxC (Escherichia coli, UniProt P0A725); assay: LpxC Binding Assay (Rapid Fire MS assay); type: biochemical
Experimental: as §1

P. aeruginosa 209 PAO1 = assay: Bacterial susceptibility testing, MIC by broth microdilution (CLSI); type: cell-based; conditions: Pseudomonas aeruginosa, PAO1, broth microdilution, 35° C., 18-24 h; read-out: MIC P. aeruginosa 209 PAO1
Method in brief: (§2)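 Broth microdilution per CLSI in cation-adjusted Mueller-Hinton broth, inoculum 3×10^5–7×10^5 CFU/mL, 2-fold serial drug dilutions in DMSO. Incubated in ambient air at 35° C for 18-24 h. MIC taken as lowest concentration preventing visible growth (OD600 nm<0.05).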

K. pneumoniae ATCC13883 = assay: as above; type: cell-based; conditions: Klebsiella pneumoniae, ATCC13883, broth microdilution, 35° C., 18-24 h; read-out: MIC K. pneumoniae ATCC13883
Method in brief: as §2

P. aeruginosa ATCC27835 = assay: as above; type: cell-based; conditions: Pseudomonas aeruginosa, ATCC27835, broth microdilution, 35° C., 18-24 h; read-out: MIC P. aeruginosa ATCC27835
Method in brief: as §2

E. coli ATCC25922 = assay: as above; type: cell-based; conditions: Escherichia coli, ATCC25922, broth microdilution, 35° C., 18-24 h; read-out: MIC E. coli ATCC25922
Method in brief: as §2

Sequence of K. pneumoniae LpxC (A6T4N9 whole entry): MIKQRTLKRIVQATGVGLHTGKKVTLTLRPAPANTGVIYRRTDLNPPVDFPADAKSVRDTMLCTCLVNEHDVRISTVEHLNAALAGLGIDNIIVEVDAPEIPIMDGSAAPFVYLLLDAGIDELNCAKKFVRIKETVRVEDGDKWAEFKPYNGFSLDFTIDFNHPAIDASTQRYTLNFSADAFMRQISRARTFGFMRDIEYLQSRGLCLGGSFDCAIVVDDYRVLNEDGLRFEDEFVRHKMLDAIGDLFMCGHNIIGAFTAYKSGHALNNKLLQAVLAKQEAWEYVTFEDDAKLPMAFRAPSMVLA
Sequence of E. coli LpxC (P0A725 whole entry): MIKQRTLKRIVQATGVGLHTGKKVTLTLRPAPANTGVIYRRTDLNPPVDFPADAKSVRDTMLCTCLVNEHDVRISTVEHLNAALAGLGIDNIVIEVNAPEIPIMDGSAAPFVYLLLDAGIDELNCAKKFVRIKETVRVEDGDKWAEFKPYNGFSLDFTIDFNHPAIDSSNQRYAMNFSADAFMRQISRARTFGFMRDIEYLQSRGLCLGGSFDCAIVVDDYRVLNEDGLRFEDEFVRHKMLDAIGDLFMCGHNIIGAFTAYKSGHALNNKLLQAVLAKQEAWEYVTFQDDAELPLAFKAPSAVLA

Structure (SMILES) | pIC50 (K. pneumoniae LpxC) | pIC50 (P. aeruginosa LpxC) | pIC50 (E. coli LpxC) | MIC (P. aeruginosa 209 PAO1) | MIC (K. pneumoniae ATCC13883) | MIC (P. aeruginosa ATCC27835) | MIC (E. coli ATCC25922)
C[C@H](O)c1nccn1[C@@H](/C=C/c1ccc(-c2ccc(C3CC(NCCC#N)C3)cc2)cc1)CO (stereo partly drawn) [Compound 37, 3-((3-(4′-((S,E)-4-hydroxy-3-(2-((S)-1-hydroxyethyl)-1H-imidazol-1-yl)but-1-en-1-yl)-[1,1′-biphenyl]-4-yl)cyclobutyl)amino)propanenitrile] | 9.15 | 7.82 | > 9.30 | 2 µg/mL (≈ 4.38 µM) | 0.5 µg/mL (≈ 1.1 µM) | 4 µg/mL (≈ 8.76 µM) | 
C[C@H](O)c1nccn1[C@@H](/C=C/c1ccc(-c2ccc(OCC(N)CO)cc2)cc1)CCO (mixture of isomers) [Compound 19, (3R,E)-5-(4′-(2-amino-3-hydroxypropoxy)-[1,1′-biphenyl]-4-yl)-3-(2-((S)-1-hydroxyethyl)-1H-imidazol-1-yl)pent-4-en-1-ol] | 8.10 | 7.21 | 8.29 | 4 µg/mL (≈ 9.14 µM) | 64 µg/mL (≈ 146 µM) | 4 µg/mL (≈ 9.14 µM) | 8 µg/mL (≈ 18.3 µM)
C[C@H](O)c1nccn1[C@@H](/C=C(\F)c1ccc(-c2ccc(OCC(O)CN)cc2)cc1)CO (single isomer, unassigned) [Compound 30, (S,Z)-4-(4′-((R)-3-amino-2-hydroxypropoxy)-[1,1′-biphenyl]-4-yl)-4-fluoro-2-(2-((S)-1-hydroxyethyl)-1H-imidazol-1-yl)but-3-en-1-ol; or (S,Z)-4-(4′-((S)-3-amino-2-hydroxypropoxy)-[1,1′-biphenyl]-4-yl)-4-fluoro-2-(2-((S)-1-hydroxyethyl)-1H-imidazol-1-yl)but-3-en-1-ol] | 8.12 | 7.10 | 8.30 | 8 µg/mL (≈ 18.1 µM) | 32 µg/mL (≈ 72.5 µM) | 8 µg/mL (≈ 18.1 µM) | 16 µg/mL (≈ 36.2 µM)
C[C@H](O)c1nccn1[C@@H](/C=C/c1ccc(-c2ccc(OCCN(CCO)CCO)cc2)cc1)CO [Compound 28, 2,2′-((2-((4′—((S,E)-4-hydroxy-3-(2-((S)-1-hydroxyethyl)-1H-imidazol-1-yl)but-1-en-1-yl)-[1,1′-biphenyl]-4-yl)oxy)ethyl)azanediyl)bis(ethan-1-ol)] | 8.37 | 7.43 | 8.59 | 4 µg/mL (≈ 8.31 µM) | 16 µg/mL (≈ 33.2 µM) | 4 µg/mL (≈ 8.31 µM) | 4 µg/mL (≈ 8.31 µM)
C[C@H](O)c1nccn1[C@@H](/C=C/c1ccc(-c2ccc(O[C@H]3COC[C@@H]3O)cc2)cc1)CO (racemic) [Compound 35, (trans)-4-((4′-((S,E)-4-hydroxy-3-(2-((S)-1-hydroxyethyl)-1H-imidazol-1-yl)but-1-en-1-yl)-[1,1′-biphenyl]-4-yl)oxy)tetrahydrofuran-3-ol] | 9.05 | 8.09 | > 9.30 | 1 µg/mL (≈ 2.29 µM) | 2 µg/mL (≈ 4.58 µM) | 4 µg/mL (≈ 9.16 µM) | 
CCOCC(O)COc1ccc(-c2ccc(/C=C/[C@@H](CO)n3ccnc3[C@H](C)O)cc2)cc1 (mixture of isomers) [Compound 36, (2S,E)-4-(4′-(3-ethoxy-2-hydroxypropoxy)-[1,1′-biphenyl]-4-yl)-2-(2-((S)-1-hydroxyethyl)-1H-imidazol-1-yl)but-3-en-1-ol] | 9.10 | 7.67 | > 9.30 | 2 µg/mL (≈ 4.42 µM) | 1 µg/mL (≈ 2.21 µM) | 4 µg/mL (≈ 8.84 µM) | 
C[C@H](O)c1nccn1[C@@H](/C=C/c1ccc(-c2ccc(OCC(CO)CO)cc2)cc1)CO [Compound 33, 2-(((4′-((S,E)-4-hydroxy-3-(2-((S)-1-hydroxyethyl)-1H-imidazol-1-yl)but-1-en-1-yl)-[1,1′-biphenyl]-4-yl)oxy)methyl)propane-1,3-diol] | 8.80 | 7.92 | 9.00 | 2 µg/mL (≈ 4.56 µM) | 8 µg/mL (≈ 18.2 µM) | 4 µg/mL (≈ 9.12 µM) | 
C[C@H](O)c1nccn1[C@@H](/C=C/c1ccc(-c2ccc(O[C@H]3COC[C@@H]3N)cc2)cc1)CO (racemic) [Compound 34, (S,E)-4-(4′-(((trans)-4-aminotetrahydrofuran-3-yl)oxy)-[1,1′-biphenyl]-4-yl)-2-(2-((S)-1-hydroxyethyl)-1H-imidazol-1-yl)but-3-en-1-ol] | 8.72 | 7.72 | 8.96 | 0.5 µg/mL (≈ 1.15 µM) | 2 µg/mL (≈ 4.59 µM) | 4 µg/mL (≈ 9.18 µM) | 
C[C@H](O)c1nccn1[C@@H](/C=C/c1ccc(-c2ccc(OC3CCN(CCO)CC3)cc2)cc1)CCO [Compound 18, (R,E)-3-(2-((S)-1-hydroxyethyl)-1H-imidazol-1-yl)-5-(4′-((1-(2-hydroxyethyl)piperidin-4-yl)oxy)-[1,1′-biphenyl]-4-yl)pent-4-en-1-ol] | 8.27 | 7.30 | 8.44 | 4 µg/mL (≈ 8.14 µM) | 16 µg/mL (≈ 32.5 µM) | 4 µg/mL (≈ 8.14 µM) | 8 µg/mL (≈ 16.3 µM)
C[C@H](O)c1nccn1[C@@H](/C=C/c1ccc(-c2ccc(C3CC(N4CC(O)C4)C3)cc2)cc1)CO (stereo partly drawn) [Compound 38, 1-(3-(4′-((S,E)-4-hydroxy-3-(2-((S)-1-hydroxyethyl)-1H-imidazol-1-yl)but-1-en-1-yl)-[1,1′-biphenyl]-4-yl)cyclobutyl)azetidin-3-ol] | 8.80 | 7.56 | 9.05 | 2 µg/mL (≈ 4.35 µM) | 2 µg/mL (≈ 4.35 µM) | 2 µg/mL (≈ 4.35 µM) | 
C[C@H](O)c1nccn1[C@@H](/C=C/c1ccc(-c2ccc(OC[C@@H](O)CN(C)C)cc2)cc1)CO [Compound 26, (S,E)-4-(4′-((S)-3-(dimethylamino)-2-hydroxypropoxy)-[1,1′-biphenyl]-4-yl)-2-(2-((S)-1-hydroxyethyl)-1H-imidazol-1-yl)but-3-en-1-ol] | 8.85 | 7.76 | 9.22 | 4 µg/mL (≈ 8.86 µM) | 2 µg/mL (≈ 4.43 µM) | 8 µg/mL (≈ 17.7 µM) | 
C[C@H](O)c1nccn1[C@@H](/C=C/c1ccc(-c2ccc(OCC(CO)N(C)C)cc2)cc1)CO (mixture of isomers) [Compound 12, (2S,E)-4-(4′-(2-(dimethylamino)-3-hydroxypropoxy)-[1,1′-biphenyl]-4-yl)-2-(2-((S)-1-hydroxyethyl)-1H-imidazol-1-yl)but-3-en-1-ol] |  | 7.16 | 7.08 | 4 µg/mL (≈ 8.86 µM) | 16 µg/mL (≈ 35.4 µM) | 4 µg/mL (≈ 8.86 µM) | 4 µg/mL (≈ 8.86 µM)
C[C@H](O)c1nccn1C/C=C/c1ccc(-c2ccc(OC3CCN(CC(O)CO)CC3)cc2)cc1 (stereo partly drawn) [Compound 2, 3-(4-((4′-((E)-3-(2-((S)-1-hydroxyethyl)-1H-imidazol-1-yl)prop-1-en-1-yl)-[1,1′-biphenyl]-4-yl)oxy)piperidin-1-yl)propane-1,2-diol] |  | 7.81 | 7.77 | 4 µg/mL (≈ 8.38 µM) | 2 µg/mL (≈ 4.19 µM) | 4 µg/mL (≈ 8.38 µM) | 1 µg/mL (≈ 2.09 µM)
C[C@H](O)c1nccn1[C@@H](/C=C/c1ccc(-c2ccc(C3CC(O)C3)cc2)cc1)CO (stereo partly drawn) [Compound 39, 3-(4′-((S,E)-4-hydroxy-3-(2-((S)-1-hydroxyethyl)-1H-imidazol-1-yl)but-1-en-1-yl)-[1,1′-biphenyl]-4-yl)cyclobutan-1-ol] | 9.22 | 7.90 | > 9.30 | 1 µg/mL (≈ 2.47 µM) | 0.5 µg/mL (≈ 1.24 µM) | 4 µg/mL (≈ 9.89 µM) | 
C[C@H](O)c1nccn1[C@@H](/C=C/c1ccc(-c2ccc(O[C@H]3C[C@@H]3N)cc2)cc1)CO (single isomer, unassigned) [Compound 14] |  | 7.65 | 8.02 | 1 µg/mL (≈ 2.47 µM) | 2 µg/mL (≈ 4.93 µM) | 8 µg/mL (≈ 19.7 µM) | 1 µg/mL (≈ 2.47 µM)
